In patent publication US7238677B2, “Prevention of urogenital infections” (Kimberly-Clark Worldwide, Inc., priority 2003, dated 2007):

Legend:
Format in all cases: cell-based
[1] = system: E. coli with P family pili, ATCC 53505; test: E. coli adhesion to A431 epithelial cells; conditions: A431 cells pre-incubated 30 minutes, OD 540 nm of 2 hr culture of bound bacteria
Description: Cultured A431 cells were used as a vaginal epithelial model. A431 cells were obtained from American Cell Type Culture Collection, catalog # CRL-1555. A monolayer of A431 cells was grown on a 24-well tissue culture plate until confluent.
E. coli with P family pili, ATCC 53505, were cultured in trypticase soy broth (TSB) overnight. Phosphate buffered saline (PBS, control) or hyaluronic acid (Sigma catalog # H 1876) solutions at a concentration of 1 mg/ml or 5 mg/ml in PBS was added to the A431 cell layers, using a volume of 1.2 ml/well. After incubation for 30 minutes at 37° C., 0.7 ml of solution was removed from the wells and 0.5 ml of the bacteria suspension was added. […] After 60 minutes, the supernatant in each well was removed and the wells were rinsed thoroughly with PBS to remove all non-bound bacteria. Trypticase soy broth was then added to wells, and the whole system was incubated at 37° C. with shaking for 2 hours. Bacterial concentration was measured by the detection of optical density of bacterial suspension at 540 nm.
(§1) All the data are expressed as mean±SEM and were analyzed by one-way Analysis of Variance (ANOVA) followed by a Tukey-Kramer Multiple Comparisons Test. Differences were considered significant at the level of p<0.05.

[2] = system: E. coli, ATCC 53505; test: Effect on E. coli growth (optical density at 540 nm); conditions: OD 540 nm at 1, 2 and 3 hours
Description: To test whether hyaluronic acid could influence cellular growth, E. coli, ATCC 53505 cells were cultured overnight in trypticase soy broth. The culture was then diluted to an optical density of 0.1 and hyaluronic acid (1 mg/ml or 5 mg/ml) in PBS was incubated with the E. coli suspension. A control comprising a suspension E. coli treated with PBS was also prepared. The test and control cells were incubated at 37° C. with shaking and the optical density of the bacterial suspensions at 540 nm was measured at 1, 2 and 3 hours after addition of the hyaluronic acid or PBS.
as §1

[3] = system: Candida albicans, ATCC 10231; test: Adherence of Candida albicans to A431 cells; conditions: for number of Candida albicans adhering to A431 cells: A431 cells pre-incubated 30 minutes, colony count
Description: A culture of Candida albicans, ATCC 10231, was started as a frozen bead in peptone/glucose culture medium and incubated at 37° C. with shaking for three days before the experiment. A monolayer of A431 cells, ATCC CRL-1555, was grown on a 24-well tissue culture plate until confluent. Hyaluronic acid at concentration of 1 mg/ml PBS or 5 mg/ml PBS was added to the wells (1.2 ml/well), and the plates were incubated for 30 minutes at 35° C. A control plate of confluent A431 cells was also prepared that received 1.2 ml/well PBS and no hyaluronic acid. After the 30 min incubation, 0.7 ml of solution was removed from the wells and 0.5 ml of yeast suspension (1×10^6 cfu/ml) was added. After 2 hours of incubation, the supernatant was removed from the wells and the wells were rinsed thoroughly with PBS to remove all non-bound yeast. Then, 0.2 ml of 0.25% trypsin/EDTA was added to each well and the plates were incubated at 35° C. for 15 min. Trypsinization was stopped by adding 1 ml of 10% fetal bovine serum in culture medium. The trypsinized cell/yeast suspension was centrifuged and re-suspended in 1 ml of the medium. Serial dilutions of the Candida albicans/A431 cell suspension were plated on Sabouraud's dextrose agar plates and incubated overnight at 35° C. The number of colonies on each plate was counted and the number of yeast attached to the cells in each well was calculated.
All the data are expressed as mean ±SEM and were analyzed by one-way Analysis of Variance (ANOVA) followed by a Tukey-Kramer Multiple Comparisons Test. Differences were considered significant at the level of p<0.05.

hyaluronic acid
number of E. coli attached to A431 cells ([1]; 1 mg/ml in PBS): lesser effect | number of E. coli attached to A431 cells ([1]; 5 mg/ml in PBS): significantly inhibited | effect on bacterial growth ([2]; 1 mg/ml in PBS): neither of the hyaluronic acid solutions had any effect on bacterial growth | effect on bacterial growth ([2]; 5 mg/ml in PBS): neither of the hyaluronic acid solutions had any effect on bacterial growth | number of Candida albicans adhering to A431 cells ([3]; 1 mg/ml in PBS): the effect was not so significant | number of Candida albicans adhering to A431 cells ([3]; 5 mg/ml in PBS): significantly inhibited | number of yeast colonies from treated A431 cells (FIG. 4) ([3]; versus PBS-treated A431 cells, concentration not given): fewer yeast colonies
